# Target: T1, Multifunctional protein ADE2 (Gallus gallus, UniProt P38024)
# T1 sequence (P38024 whole entry): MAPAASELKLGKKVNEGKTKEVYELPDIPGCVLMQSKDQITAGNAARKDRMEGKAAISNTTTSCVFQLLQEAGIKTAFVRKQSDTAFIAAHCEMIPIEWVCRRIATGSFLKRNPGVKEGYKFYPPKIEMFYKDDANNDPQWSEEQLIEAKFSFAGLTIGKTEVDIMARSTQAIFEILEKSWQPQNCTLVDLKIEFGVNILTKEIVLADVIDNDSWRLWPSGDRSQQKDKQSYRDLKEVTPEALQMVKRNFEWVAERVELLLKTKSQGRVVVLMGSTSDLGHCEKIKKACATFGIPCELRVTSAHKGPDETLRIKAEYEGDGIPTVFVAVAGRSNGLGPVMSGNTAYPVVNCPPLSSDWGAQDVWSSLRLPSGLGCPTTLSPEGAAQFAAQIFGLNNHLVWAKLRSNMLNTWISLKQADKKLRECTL
# Test: Inhibition of Gallus gallus AIR carboxylase by CAIR decarboxylation assay
Ki [nM],IC50 [nM],Compound
1300,,O=[N+]([O-])c1cn([C@@H]2O[C@H](COP(=O)(O)O)[C@@H](O)[C@H]2O)cn1
22000,,O=[N+]([O-])c1cnn([C@@H]2O[C@H](COP(=O)(O)O)[C@@H](O)[C@H]2O)c1
6000,,Nc1c(C(=O)O)cnn1[C@@H]1O[C@H](COP(=O)(O)O)[C@@H](O)[C@H]1O
2800,,Nc1c(C(=O)O)nnn1[C@@H]1O[C@H](COP(=O)(O)O)[C@@H](O)[C@H]1O
0.34,,Nc1c([N+](=O)[O-])ncn1[C@@H]1O[C@H](COP(=O)(O)O)[C@@H](O)[C@H]1O
,> 100000,O=[N+]([O-])c1ccn([C@@H]2O[C@H](COP(=O)(O)O)[C@@H](O)[C@H]2O)c1
62000,,Nc1c(C=O)ncn1[C@@H]1O[C@H](COP(=O)(O)O)[C@@H](O)[C@H]1O
390,,Nc1c([N+](=O)[O-])cnn1[C@@H]1O[C@H](COP(=O)(O)O)[C@@H](O)[C@H]1O

# Test system: not listed separately
# Test: Dissociation constant, pKa of the compound
# Format: physicochemical
row,pKa,Compound
1,0.3,Nc1c([N+](=O)[O-])ncn1[C@@H]1O[C@H](COP(=O)(O)O)[C@@H](O)[C@H]1O

# — ChEMBL document CHEMBL1140870, “Interrogating the mechanism of a tight binding inhibitor of AIR carboxylase” (Bioorg Med Chem, 2009)
